Paper PMC4222603, “Dual inhibition of HIV-1 replication by integrase-LEDGF allosteric inhibitors is predominant at the post-integration stage” (Retrovirology, 2013)

molecular target: T1, IN-CCD/LEDGF-IBD interaction (Human immunodeficiency virus type 1 group M subtype B, UniProt P12497, F1332K); assay: HTRF-based CCD-IBD interaction assay; type: binding, HIV-1; conditions: Table 1
T1 construct: cloning the integrase region (residues 50 to 202, encoding the catalytic core domain); made in house
From the text: All HTRF® conjugated monoclonal antibodies were purchased from Cisbio Bioassays.

Point of comparison: `CC(C)(C)OC(C(=O)O)c1c(-c2ccc3c(c2)CCCO3)ccc2ncccc12` (stereo not shown) [Mut029, 2-(tert-butoxy)-2-[6-(3,4-dihydro-2H-1-benzopyran-6-yl)quinolin-5-yl]acetic acid], IC50 1.7 µM. Against it:
- CC(C)(C)OC(C(=O)O)c1c(-c2ccc3c(c2)CCCO3)ccc2ccccc12 (stereo not shown) [Mut047, 2-(tert-butoxy)-2-[2-(3,4-dihydro-2H-1-benzopyran-6-yl)naphthalene-1-yl]acetic acid] — 2.2-fold higher, 3.8 µM
- Cc1nc2ccccc2c(C2CCCCC2)c1C(OC(C)(C)C)C(=O)O (stereo not shown) [Mut049, 2-(tert-butoxy)-2-(4-cyclohexyl-2-methylquinolin-3-yl)acetic acid] — 11-fold higher, 18 µM

molecular target: IN-LEDGF/p75 interaction (Human immunodeficiency virus type 1 group M subtype B, UniProt P12497); assay: biochemical; conditions: IN-LEDGF IC50, Table 1; HTRF, full length proteins
Method: IN-LEDGF HTRF® assay was performed in 384-well low volume black polystyrene plates (Corning) using IN-LEDGF assay buffer (25 mM Tris–HCl pH 7.4, 150 mM NaCl, 2 mM MgCl2, 0.4 M KF, 0.1% Igepal CA-630, 0.1% bovine serum albumin, 1 mM DTT). […] The HTRF ratio was converted to % inhibition and analyzed by fitting a sigmoidal dose–response equation with Hill slope to determine the IC50 of the compound.

Point of comparison: `Cc1nc2ccccc2c(C2CCCCC2)c1C(OC(C)(C)C)C(=O)O` (stereo not shown) [Mut049, 2-(tert-butoxy)-2-(4-cyclohexyl-2-methylquinolin-3-yl)acetic acid], IC50 3.5 µM. Against it:
- CC(C)(C)OC(C(=O)O)c1c(-c2ccc3c(c2)CCCO3)ccc2ncccc12 (stereo not shown) [Mut029, 2-(tert-butoxy)-2-[6-(3,4-dihydro-2H-1-benzopyran-6-yl)quinolin-5-yl]acetic acid] — within 1.5-fold, 2.5 µM
- CC(C)(C)OC(C(=O)O)c1c(-c2ccc3c(c2)CCCO3)ccc2ccccc12 (stereo not shown) [Mut047, 2-(tert-butoxy)-2-[2-(3,4-dihydro-2H-1-benzopyran-6-yl)naphthalene-1-yl]acetic acid] — 2.3-fold higher, 7.9 µM

molecular target: T2, IN strand transfer activity (Human immunodeficiency virus type 1 group M subtype B, UniProt P12497); assay: IN strand transfer ELISA assay; type: biochemical, HIV-1; conditions: Table 1; ELISA; read-out: IN ST IC50
T2 construct: loaded on a Superdex 200 16/600 PG column (for full length IN); made in house
Method: IN strand transfer ELISA assay has been adapted from. […] 16 μL of IN mixture (20 mM HEPES pH 7.5, 10 mM MgCl2, 1 mM DTT, 0.50 μM His6-IN) was added. […] The reaction was stopped by addition of 60 μL stop mixture (20 mM Tris–HCl pH 7.6, 0.4 M NaCl, 10 mM Na2EDTA, 0.1 mg/mL salmon sperm DNA) and the volume transferred to Reacti-Bind high-binding capacity streptavidin-coated white plates (Thermo Scientific Pierce). After 1 h incubation at room temperature under gentle shaking, integrase and unjoined DNA were removed by three washes with 200 μL wash solution 1 (30 mM NaOH, 0.2 M NaCl, 1 mM Na2EDTA). 100 μL of 2000-fold diluted HRP-conjugated anti-DIG Fab (Roche Applied Science) was added and the plate was incubated for 1 h at 37°C. Unbound antibody was removed with wash solution 2 (PBS pH 7.4, 0.05% Tween-20, 0.1% bovine serum albumin), 100 μL of SuperSignal Femto ELISA substrate (Thermo Scientific Pierce) was added and chemiluminescence was immediately read in a PHERAstar Plus with LUM-plus module. The signal, converted to % inhibition, was analyzed by fitting a sigmoidal dose–response curve to determine IC50 and the inhibition plateau.

Point of comparison: `CC(C)(C)OC(C(=O)O)c1c(-c2ccc3c(c2)CCCO3)ccc2ccccc12` (stereo not shown) [Mut047, 2-(tert-butoxy)-2-[2-(3,4-dihydro-2H-1-benzopyran-6-yl)naphthalene-1-yl]acetic acid], IC50 0.88 µM. Against it:
- Cc1nc2ccccc2c(C2CCCCC2)c1C(OC(C)(C)C)C(=O)O (stereo not shown) [Mut049, 2-(tert-butoxy)-2-(4-cyclohexyl-2-methylquinolin-3-yl)acetic acid] — 4.9-fold lower, 0.18 µM

same assay, conditions: inhibition plateau, concentrations up to 100 μM

Point of comparison: `Cc1nc2ccccc2c(C2CCCCC2)c1C(OC(C)(C)C)C(=O)O` (stereo not shown) [Mut049, 2-(tert-butoxy)-2-(4-cyclohexyl-2-methylquinolin-3-yl)acetic acid], “IN ST plateau (%)” value 56%. Against it:
- CC(C)(C)OC(C(=O)O)c1c(-c2ccc3c(c2)CCCO3)ccc2ccccc12 (stereo not shown) [Mut047, 2-(tert-butoxy)-2-[2-(3,4-dihydro-2H-1-benzopyran-6-yl)naphthalene-1-yl]acetic acid] — higher, 70%

tested on: HIV-1 NL4-3; assay: Antiviral assay in MT-4 cells, multiple-round infection, CellTiter-Glo; type: cell-based; conditions: Human immunodeficiency virus 1, NL43, MT4; Table 1; read-out: NL4-3 EC50 (MT4 assays)
Method: MT-4 cells growing exponentially at the density of 10^6/mL were infected with HIV-1 strain NL4-3 at a MOI (multiplicity of infection) of 0.001 for 2 h. The cells were washed with PBS and aliquoted, using 100 μL fresh complete RPMI, into 96-well white plates (Corning) in the presence of different concentrations of compounds.

Point of comparison: `Cc1nc2ccccc2c(C2CCCCC2)c1C(OC(C)(C)C)C(=O)O` (stereo not shown) [Mut049, 2-(tert-butoxy)-2-(4-cyclohexyl-2-methylquinolin-3-yl)acetic acid], EC50 2 µM. Against it:
- CC(C)(C)OC(C(=O)O)c1c(-c2ccc3c(c2)CCCO3)ccc2ncccc12 (stereo not shown) [Mut029, 2-(tert-butoxy)-2-[6-(3,4-dihydro-2H-1-benzopyran-6-yl)quinolin-5-yl]acetic acid] — 1.9-fold higher, 3.8 µM
- CC(C)(C)OC(C(=O)O)c1c(-c2ccc3c(c2)CCCO3)ccc2ccccc12 (stereo not shown) [Mut047, 2-(tert-butoxy)-2-[2-(3,4-dihydro-2H-1-benzopyran-6-yl)naphthalene-1-yl]acetic acid] — 8-fold higher, 16 µM

same assay, conditions: Human immunodeficiency virus 1, NL43; MT4 cells; mean of six independent experiments; read-out: NL4-3 EC50 Multiple-round

Point of comparison: `Cc1nc2ccccc2c(C2CCCCC2)c1C(OC(C)(C)C)C(=O)O` (stereo not shown) [Mut049, 2-(tert-butoxy)-2-(4-cyclohexyl-2-methylquinolin-3-yl)acetic acid], EC50 2 ± 0.1 µM. Against it:
- CC(C)(C)OC(C(=O)O)c1c(-c2ccc3c(c2)CCCO3)ccc2ncccc12 (stereo not shown) [Mut029, 2-(tert-butoxy)-2-[6-(3,4-dihydro-2H-1-benzopyran-6-yl)quinolin-5-yl]acetic acid] — 1.9-fold higher, 3.8 ± 1.6 µM
- CC(C)(C)OC(C(=O)O)c1c(-c2ccc3c(c2)CCCO3)ccc2ccccc12 (stereo not shown) [Mut047, 2-(tert-butoxy)-2-[2-(3,4-dihydro-2H-1-benzopyran-6-yl)naphthalene-1-yl]acetic acid] — 8-fold higher, 16 ± 7 µM

tested on: HxB2 HIV-1; assay: Antiviral assay in MT4 cells infected with HxB2; type: cell-based; conditions: Human immunodeficiency virus 1, HXB2, MT4; Table 1; read-out: HxB2 EC50 (MT4 assays)

Point of comparison: `CC(C)(C)OC(C(=O)O)c1c(-c2ccc3c(c2)CCCO3)ccc2ncccc12` (stereo not shown) [Mut029, 2-(tert-butoxy)-2-[6-(3,4-dihydro-2H-1-benzopyran-6-yl)quinolin-5-yl]acetic acid], EC50 3.8 µM. Against it:
- CC(C)(C)OC(C(=O)O)c1c(-c2ccc3c(c2)CCCO3)ccc2ccccc12 (stereo not shown) [Mut047, 2-(tert-butoxy)-2-[2-(3,4-dihydro-2H-1-benzopyran-6-yl)naphthalene-1-yl]acetic acid] — 5-fold higher, 19 µM
- Cc1nc2ccccc2c(C2CCCCC2)c1C(OC(C)(C)C)C(=O)O (stereo not shown) [Mut049, 2-(tert-butoxy)-2-(4-cyclohexyl-2-methylquinolin-3-yl)acetic acid] — 5.1-fold lower, 0.75 µM

tested on: not listed separately; assay: in vitro; type: cell-based; conditions: human
Method: Growth inhibition was monitored in a proliferating human T-cell line (MT-4) with different concentrations of compounds. ATP levels were quantified using the CellTiter-Glo® luminescent reagent (Promega) to measure the ability of a compound to inhibit cell growth, an indication of the compound’s cytotoxicity. Cytotoxicity was evaluated at either day 2 or day 5.

`CC(C)(C)OC(C(=O)O)c1c(-c2ccc3c(c2)CCCO3)ccc2ncccc12` (stereo not shown) [Mut029, 2-(tert-butoxy)-2-[6-(3,4-dihydro-2H-1-benzopyran-6-yl)quinolin-5-yl]acetic acid] and `CC(C)(C)OC(C(=O)O)c1c(-c2ccc3c(c2)CCCO3)ccc2ccccc12` (stereo not shown) [Mut047, 2-(tert-butoxy)-2-[2-(3,4-dihydro-2H-1-benzopyran-6-yl)naphthalene-1-yl]acetic acid] cannot be ordered by CC50: > 50 µM for the first, > 50 µM for the second.

For `Cc1nc2ccccc2c(C2CCCCC2)c1C(OC(C)(C)C)C(=O)O` (stereo not shown) [Mut049, 2-(tert-butoxy)-2-(4-cyclohexyl-2-methylquinolin-3-yl)acetic acid], the CC50 was > 50 µM.

tested on: VSV-G-pseudotyped NL4-3Δenv-luc; assay: microbe, parasite or virus in culture; type: cell-based, HIV-1; conditions: not given

Point of comparison: `Cc1nc2ccccc2c(C2CCCCC2)c1C(OC(C)(C)C)C(=O)O` (stereo not shown) [Mut049, 2-(tert-butoxy)-2-(4-cyclohexyl-2-methylquinolin-3-yl)acetic acid], SR/MR ratio 21. Against it:
- CC(C)(C)OC(C(=O)O)c1c(-c2ccc3c(c2)CCCO3)ccc2ncccc12 (stereo not shown) [Mut029, 2-(tert-butoxy)-2-[6-(3,4-dihydro-2H-1-benzopyran-6-yl)quinolin-5-yl]acetic acid] — lower, 8
- CC(C)(C)OC(C(=O)O)c1c(-c2ccc3c(c2)CCCO3)ccc2ccccc12 (stereo not shown) [Mut047, 2-(tert-butoxy)-2-[2-(3,4-dihydro-2H-1-benzopyran-6-yl)naphthalene-1-yl]acetic acid] — lower, 2.3

same assay, conditions: Human immunodeficiency virus 1, NL43, MT4, read-out: NL4-3 EC50 Single-round

Point of comparison: `Cc1nc2ccccc2c(C2CCCCC2)c1C(OC(C)(C)C)C(=O)O` (stereo not shown) [Mut049, 2-(tert-butoxy)-2-(4-cyclohexyl-2-methylquinolin-3-yl)acetic acid], EC50 41 ± 2 µM. Against it:
- CC(C)(C)OC(C(=O)O)c1c(-c2ccc3c(c2)CCCO3)ccc2ncccc12 (stereo not shown) [Mut029, 2-(tert-butoxy)-2-[6-(3,4-dihydro-2H-1-benzopyran-6-yl)quinolin-5-yl]acetic acid] — within 1.5-fold, 30 ± 4 µM
- CC(C)(C)OC(C(=O)O)c1c(-c2ccc3c(c2)CCCO3)ccc2ccccc12 (stereo not shown) [Mut047, 2-(tert-butoxy)-2-[2-(3,4-dihydro-2H-1-benzopyran-6-yl)naphthalene-1-yl]acetic acid] — within error, 37 ± 2 µM
